# Test results taken from ChEMBL document CHEMBL5634155, “Design and synthesis of pyrazole derivatives against neutrophilic inflammation” (Eur J Med Chem, 2023).
# Calls of active or inactive are those of the source. The rule behind the calls is not given here.
# Target: 3',5'-cyclic-AMP phosphodiesterase 4B (Homo sapiens) (UniProt Q07343)
# Assay: Inhibition of human recombinant PDE4B1 at 10 uM using […] as substrate preincubated with compound for 15 mins followed by substrate addition and measured after 30 mins by spectrofluorimetric analysis relative to control
# Conditions: time 45.0 min
# 3',5'-cyclic-AMP phosphodiesterase 4B (Homo sapiens), sequence (Q07343 whole entry): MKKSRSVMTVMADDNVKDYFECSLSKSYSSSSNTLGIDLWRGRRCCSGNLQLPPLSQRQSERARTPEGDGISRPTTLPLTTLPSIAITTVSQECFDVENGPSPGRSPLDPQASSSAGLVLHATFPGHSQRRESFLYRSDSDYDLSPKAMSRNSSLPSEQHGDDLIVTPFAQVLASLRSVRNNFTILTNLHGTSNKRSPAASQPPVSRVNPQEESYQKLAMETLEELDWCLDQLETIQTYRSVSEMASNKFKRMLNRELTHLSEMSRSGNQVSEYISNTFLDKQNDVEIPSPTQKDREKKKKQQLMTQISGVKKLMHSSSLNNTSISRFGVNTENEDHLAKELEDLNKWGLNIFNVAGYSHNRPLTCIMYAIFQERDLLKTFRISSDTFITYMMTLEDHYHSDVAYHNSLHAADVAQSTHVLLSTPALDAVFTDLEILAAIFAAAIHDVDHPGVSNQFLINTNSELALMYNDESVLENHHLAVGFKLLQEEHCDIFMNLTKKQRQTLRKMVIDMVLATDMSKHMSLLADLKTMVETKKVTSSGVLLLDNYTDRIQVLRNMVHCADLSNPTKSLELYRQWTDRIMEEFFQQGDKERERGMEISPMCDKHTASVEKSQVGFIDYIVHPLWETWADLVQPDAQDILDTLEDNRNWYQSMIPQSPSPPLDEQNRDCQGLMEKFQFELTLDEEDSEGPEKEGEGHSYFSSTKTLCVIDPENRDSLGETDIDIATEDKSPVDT
row,inhibition [%],Structure (SMILES)
1,83,Fc1ccccc1Cn1nc(-c2ccco2)cc1-c1ccccc1

# Test system: Neutrophil
# Assay: Inhibition of fMLF/CB-induced human Neutrophil activation assessed as reduction in superoxide anion generation preincubated with compound for 2 mins prior to CB induction for 3 mins followed by fMLF addition by spectrophotometric analysis
# Assay type: functional, cell-based
# Conditions: not given
row,Structure (SMILES),IC50 [µM]
1,CCCCCCCn1cc(-c2ccccc2)c(-c2ccccc2)n1,> 10
2,c1ccc(Cn2nc(-c3ccccc3)cc2-c2ccccc2)cc1,2.83
3,CCCCCCCn1nc(-c2cccs2)cc1-c1ccccc1,> 10
4,COc1ccccc1C(=O)n1nc(-c2ccc(C=O)o2)c2ccccc21,> 10
5,CCCCCCCn1nc(-c2ccccc2)cc1-c1ccccc1,> 10
6,CCCCCCCn1nc(-c2ccc(C=O)o2)c2ccccc21,> 10
7,O=Cc1ccc(-c2cc(-c3ccccc3)n(Cc3ccccc3)n2)o1,1.55
8,CCCCCCCn1cc(-c2ccccc2)c(-c2cccs2)n1,> 10
9,c1ccc(-c2cn(CC3CCCCC3)nc2-c2ccccc2)cc1,> 10
10,COc1ccccc1C(=O)n1nc(-c2ccco2)c2ccccc21,> 10

# Further lines, results first:
row,IC50 [µM],Structure (SMILES)
1,0.00906,Fc1ccccc1Cn1nc(-c2ccco2)cc1-c1ccccc1
2,833,c1ccc(-c2cn(CC3CCCCC3)nc2-c2ccco2)cc1
3,2.03,CCCCCCCn1nc(-c2ccc(C(=O)O)o2)c2ccccc21
4,> 10,CCCCCCCn1nc(-c2ccco2)c2ccccc21
5,164,COc1cccc(Cn2cc(-c3ccccc3)c(-c3ccccc3)n2)c1
6,0.2,c1ccc(-c2cc(-c3ccco3)nn2CC2CCCCC2)cc1

# Test system: Neutrophil
# Assay: Inhibition of fMLF/CB-induced human Neutrophil activation assessed as reduction in elastase release using MeO-Suc-Ala-Ala-Pro-Val-pnitroanilide as substrate incubated for 5 mins
# Assay type: functional, cell-based
# Conditions: not given
row,Structure (SMILES),IC50 [µM]
1,CCCCCCCn1cc(-c2ccccc2)c(-c2ccccc2)n1,> 10
2,c1ccc(Cn2nc(-c3ccccc3)cc2-c2ccccc2)cc1,> 10
3,CCCCCCCn1nc(-c2cccs2)cc1-c1ccccc1,> 10
4,COc1ccccc1C(=O)n1nc(-c2ccc(C=O)o2)c2ccccc21,> 10
5,CCCCCCCn1nc(-c2ccccc2)cc1-c1ccccc1,> 10
6,CCCCCCCn1nc(-c2ccc(C=O)o2)c2ccccc21,2.56
7,O=Cc1ccc(-c2cc(-c3ccccc3)n(Cc3ccccc3)n2)o1,1.84
8,CCCCCCCn1cc(-c2ccccc2)c(-c2cccs2)n1,> 10
9,c1ccc(-c2cn(CC3CCCCC3)nc2-c2ccccc2)cc1,> 10
10,COc1ccccc1C(=O)n1nc(-c2ccco2)c2ccccc21,> 10

# Second part, the compound after the results:
row,IC50 [µM],Structure (SMILES)
1,> 10,Fc1ccccc1Cn1nc(-c2ccco2)cc1-c1ccccc1
2,1.19,c1ccc(-c2cn(CC3CCCCC3)nc2-c2ccco2)cc1
3,1.92,CCCCCCCn1nc(-c2ccc(C(=O)O)o2)c2ccccc21
4,> 10,CCCCCCCn1nc(-c2ccco2)c2ccccc21
5,> 10,COc1cccc(Cn2cc(-c3ccccc3)c(-c3ccccc3)n2)c1
6,2.42,c1ccc(-c2cc(-c3ccco3)nn2CC2CCCCC2)cc1

# Test system: Neutrophil
# Assay: Inhibition of fMLF/CB-induced human Neutrophil activation assessed as reduction in superoxide anion generation at 10 uM preincubated with compound for 2 mins prior to CB induction for 3 mins followed by fMLF addition by spectrophotometric analysis relative to control
# Assay type: functional
# Conditions: 5 min
row,Structure (SMILES),inhibition at 10 µM [%]
1,Fc1ccccc1Cn1nc(-c2ccco2)cc1-c1ccccc1,66.5
2,CCCCCCCn1cc(-c2ccccc2)c(-c2ccccc2)n1,0.72
3,c1ccc(Cn2nc(-c3ccccc3)cc2-c2ccccc2)cc1,63.6
4,CCCCCCCn1nc(-c2cccs2)cc1-c1ccccc1,16.6
5,COc1ccccc1C(=O)n1nc(-c2ccc(C=O)o2)c2ccccc21,10.4
6,CCCCCCCn1nc(-c2ccccc2)cc1-c1ccccc1,4.58
7,CCCCCCCn1nc(-c2ccc(C=O)o2)c2ccccc21,5.88
8,c1ccc(-c2cn(CC3CCCCC3)nc2-c2ccco2)cc1,104
9,O=Cc1ccc(-c2cc(-c3ccccc3)n(Cc3ccccc3)n2)o1,80.8
10,CCCCCCCn1cc(-c2ccccc2)c(-c2cccs2)n1,-5.72
11,CCCCCCCn1nc(-c2ccc(C(=O)O)o2)c2ccccc21,98.7
12,c1ccc(-c2cn(CC3CCCCC3)nc2-c2ccccc2)cc1,6.73
13,CCCCCCCn1nc(-c2ccco2)c2ccccc21,8.38
14,COc1cccc(Cn2cc(-c3ccccc3)c(-c3ccccc3)n2)c1,68.6
15,COc1ccccc1C(=O)n1nc(-c2ccco2)c2ccccc21,14.5
16,c1ccc(-c2cc(-c3ccco3)nn2CC2CCCCC2)cc1,99.3

# Test system: not listed separately
# Assay: Apparent volume of distribution in C57BL/6 mouse at 5 mg/kg, iv measured upto 360 mins by HPLC analysis
# Assay type: ADME, organism-based
# Conditions: in vivo, 6 h
row,Vz [mL],Structure (SMILES)
1,225,Fc1ccccc1Cn1nc(-c2ccco2)cc1-c1ccccc1

# Test system: not listed separately
# Assay: Half life in C57BL/6 mouse at 5 mg/kg, iv measured upto 360 mins by HPLC analysis
# Assay type: ADME, organism-based
# Conditions: in vivo
row,half-life [h],Structure (SMILES)
1,1.32,Fc1ccccc1Cn1nc(-c2ccco2)cc1-c1ccccc1

# Test system: Neutrophil
# Assay: Inhibition of fMLF/CB-induced human Neutrophil activation assessed as reduction in elastase release at 10 uM using MeO-Suc-Ala-Ala-Pro-Val-pnitroanilide as substrate incubated for 5 mins relative to control
# Assay type: functional
# Conditions: not given
row,Structure (SMILES),inhibition at 10 µM [%]
1,Fc1ccccc1Cn1nc(-c2ccco2)cc1-c1ccccc1,37
2,CCCCCCCn1cc(-c2ccccc2)c(-c2ccccc2)n1,16.9
3,c1ccc(Cn2nc(-c3ccccc3)cc2-c2ccccc2)cc1,36.8
4,CCCCCCCn1nc(-c2cccs2)cc1-c1ccccc1,21.1
5,COc1ccccc1C(=O)n1nc(-c2ccc(C=O)o2)c2ccccc21,31.8
6,CCCCCCCn1nc(-c2ccccc2)cc1-c1ccccc1,1.6
7,CCCCCCCn1nc(-c2ccc(C=O)o2)c2ccccc21,67.1
8,c1ccc(-c2cn(CC3CCCCC3)nc2-c2ccco2)cc1,109
9,O=Cc1ccc(-c2cc(-c3ccccc3)n(Cc3ccccc3)n2)o1,96.1
10,CCCCCCCn1cc(-c2ccccc2)c(-c2cccs2)n1,21
11,CCCCCCCn1nc(-c2ccc(C(=O)O)o2)c2ccccc21,112
12,c1ccc(-c2cn(CC3CCCCC3)nc2-c2ccccc2)cc1,8.93
13,CCCCCCCn1nc(-c2ccco2)c2ccccc21,44.2
14,COc1cccc(Cn2cc(-c3ccccc3)c(-c3ccccc3)n2)c1,25
15,COc1ccccc1C(=O)n1nc(-c2ccco2)c2ccccc21,-0.2
16,c1ccc(-c2cc(-c3ccco3)nn2CC2CCCCC2)cc1,109

# Test system: not listed separately
# Assay: AUC (0 to infinity) in C57BL/6 mouse at 5 mg/kg, iv measured upto 360 mins by HPLC analysis
# Assay type: ADME, organism-based
# Conditions: in vivo
row,AUC(0-inf) [ng·h/mL],Structure (SMILES)
1,962,Fc1ccccc1Cn1nc(-c2ccco2)cc1-c1ccccc1

# Test system: not listed separately
# Assay: Clearance in C57BL/6 mouse at 5 mg/kg, iv measured upto 360 mins by HPLC analysis
# Assay type: ADME, organism-based
# Conditions: in vivo
row,clearance [mL/min],Structure (SMILES)
1,1.97,Fc1ccccc1Cn1nc(-c2ccco2)cc1-c1ccccc1

# Test system: Neutrophil
# Assay: Inhibition of fMLF/CB-induced human Neutrophil activation assessed as reduction in superoxide anion generation at 1 to 1000 nM preincubated with compound for 2 mins prior to CB induction for 3 mins followed by fMLF addition in presence of KT5720 by spectrophotometric analysis
# Assay type: functional, cell-based
# Conditions: dose 1-1000 nM, time 5.0 min
row,Structure (SMILES),inhibition
1,Fc1ccccc1Cn1nc(-c2ccco2)cc1-c1ccccc1,Active

# Target: 3',5'-cyclic-AMP phosphodiesterase 4D (Homo sapiens) (UniProt Q08499)
# Assay: Inhibition of human recombinant PDE4D2 at 10 uM using […] as substrate preincubated with compound for 15 mins followed by substrate addition and measured after 30 mins by spectrofluorimetric analysis relative to control
# Conditions: time 45.0 min
# 3',5'-cyclic-AMP phosphodiesterase 4D (Homo sapiens), sequence (Q08499 whole entry): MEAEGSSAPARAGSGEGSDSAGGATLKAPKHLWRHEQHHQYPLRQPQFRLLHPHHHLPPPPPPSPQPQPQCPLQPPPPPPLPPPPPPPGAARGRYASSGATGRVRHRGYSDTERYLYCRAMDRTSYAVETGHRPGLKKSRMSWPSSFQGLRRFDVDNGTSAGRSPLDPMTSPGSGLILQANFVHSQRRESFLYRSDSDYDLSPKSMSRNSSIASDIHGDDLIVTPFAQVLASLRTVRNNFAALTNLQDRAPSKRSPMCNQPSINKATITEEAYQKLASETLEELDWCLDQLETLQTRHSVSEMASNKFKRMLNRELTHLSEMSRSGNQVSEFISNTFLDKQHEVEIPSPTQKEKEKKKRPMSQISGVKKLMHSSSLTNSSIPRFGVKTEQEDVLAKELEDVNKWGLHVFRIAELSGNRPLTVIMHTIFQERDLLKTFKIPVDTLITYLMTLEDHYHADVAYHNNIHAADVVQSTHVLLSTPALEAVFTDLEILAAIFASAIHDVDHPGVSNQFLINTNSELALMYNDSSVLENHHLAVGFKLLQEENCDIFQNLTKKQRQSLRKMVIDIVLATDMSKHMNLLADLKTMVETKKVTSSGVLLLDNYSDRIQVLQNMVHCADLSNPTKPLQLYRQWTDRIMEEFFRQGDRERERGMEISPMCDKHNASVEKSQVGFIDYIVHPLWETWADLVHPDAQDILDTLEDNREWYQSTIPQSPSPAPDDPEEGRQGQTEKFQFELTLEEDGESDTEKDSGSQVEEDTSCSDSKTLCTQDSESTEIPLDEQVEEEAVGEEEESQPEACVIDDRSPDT
row,inhibition [%],Structure (SMILES)
1,85,Fc1ccccc1Cn1nc(-c2ccco2)cc1-c1ccccc1
